Reference: US9975869B2 (Sphaera Pharma Pvt. Ltd., priority 2013, dated 2018)

Tested on: AMPK
Experiment: AMPK activation potential, cell based ELISA (Phospho-AMPKα Thr172) in Hep G2 cells
Details: 10 nm concentration; Hep G2 liver cells; % activity with DMSO control as 100%; 30 min incubation for Epicatechin analogs
Procedure: Testing of Compounds for Their AMPK Activation Potential
AMPK activation potential of the compounds was evaluated using cell based ELISA. Hepatoma (Hep G2) liver cells were maintained in a T 75 culture flask-containing 25 mM DMEM+10% fetal calf serum. The cells were maintained in a T 75 culture flask-containing medium (DMEM+10% fetal calf serum). On reaching a confluence of 70 to 80%, the cells were seeded in a 96 well plate at a density of 40,000 cells per well in 25 mM DMEM+10% FCS medium. The plates were then incubated at 37° C. with 5% CO2 for 24 hours. Various concentrations of drugs were prepared in DMSO and diluted to required concentration with the medium and incubated at 37° C. with 5% CO2 for 30 min and 1 h for Epicatechin analogs and 11-BHP analogs respectively. Metformin was used as positive control. Cells were fixed with 4% formaldehyde for 30 minutes at room temperature and washed three times with PBS containing 0.1% Triton X-100. Endogenous peroxidase was quenched with 1% H2O2 in PBS-T (0.1% Tween 20) for 30 minutes and washed three times in PBS-T. Cells were blocked with 1% BSA in PBS-T for 1 hour. The cells were incubated with 1:1000 dilution primary antibody (Phospho-AMPKα (Thr172) Rabbit mAb, Cell Signaling in PBS-T containing 5% BSA at 4° C. overnight. The cells were then washed three times with PBS-T for 5 minutes and incubated with 1:1000 dilution secondary antibody (Anti-rabbit IgG, HRP-linked Antibody, Cell Signaling) in PBS-T with 1% BSA for 1 hour at RT. Cells were washed three times with PBS-T for 5 minutes The cells were incubated with 100 μl TMB substrate solution for 30 minutes and the reaction was stopped with 100 μl of 2N H2SO4. Then the plate was read at 450 nm using ELISA plate reader and absorbance recorded. % activity was calculated using DMSO control as 100%. All compounds of the present invention, as exemplified and encompassed are found to be active.

| Structure (SMILES) | % pAMPK(at 10 nm) [%] |
| --- | --- |
| CC(C)COC(=O)Oc1cc(OC(=O)OCC(C)C)c2c(c1)O[C@H](c1ccc(OC(=O)OCc3ccccc3)c(OC(=O)OCc3ccccc3)c1)[C@H](O)C2 [Compound 1060, dibenzyl (4-((2R,3R)-3-hydroxy-5,7-bis((isobutoxycarbonyl)oxy)chroman-2-yl)-1,2-phenylene) bis(carbonate)] | 110 |
| COc1cc(C2Oc3cc(O)ccc3C[C@H]2O)ccc1F (stereo in doubt) [Compound 1028, 2-(4-fluoro-3-methoxyphenyl)chromane-3,7-diol] | 101 |
| Oc1ccc([C@H]2Oc3cccc(O)c3C[C@H]2O)cc1 (racemic) [Compound 1006, Cis (±) 2-(4-hydroxyphenyl)chroman-3,5-diol] | 103 |
| Oc1cccc([C@H]2Oc3cc(O)ccc3C[C@H]2O)c1 (racemic) [Compound 1007, Cis (±) 2-(3-hydroxyphenyl)chroman-3,7-diol] | 113 |
| Cc1ccc([C@H]2Oc3cc(O)ccc3C[C@H]2O)cc1O (stereo in doubt) [Compound 1027, 2-(3-hydroxy-4-methylphenyl)chromane-3,7-diol] | 94 |
| COc1ccc([C@H]2Oc3cc(OC)ccc3C[C@H]2O)cc1 [Compound 1070, (2R,3R)-7-methoxy-2-(4-methoxyphenyl)chroman-3-ol] | 126 |
| CC(C)NC(=O)Oc1ccc([C@H]2Oc3cc(O)cc(O)c3C[C@H]2O)cc1OC(=O)NC(C)C [Compound 1044, 4-((2R,3R)-3,5,7-trihydroxychroman-2-yl)-1,2-phenylene bis(isopropylcarbamate)] | 96 |
| COC(=O)CNC(=O)O[C@@H]1Cc2c(O)cc(O)cc2O[C@@H]1c1ccc(O)c(O)c1 [Compound 1056, methyl ((((2R,3R)-2-(3,4-dihydroxyphenyl)-5,7-dihydroxychroman-3-yl)oxy)carbonyl)glycinate] | 112 |
| CC(C)(C)COC(=O)O[C@@H]1Cc2c(O)cc(O)cc2O[C@@H]1c1ccc(O)c(O)c1 [Compound 1045, (2R,3R)-2-(3,4-dihydroxyphenyl)-5,7-dihydroxychroman-3-yl neopentyl carbonate] | 105 |
| Oc1cccc([C@H]2Oc3cccc(O)c3C[C@H]2O)c1 (racemic) [Compound 1005, Cis (±) 2-(3-hydroxyphenyl)chroman-3,5-diol] | 102 |
| C[n+]1cccc(C(=O)O[C@@H]2Cc3c(O)cc(O)cc3O[C@@H]2c2ccc(O)c(O)c2)c1 [Compound 1041, 3-((((2R,3R)-2-(3,4-dihydroxyphenyl)-5,7-dihydroxychroman-3-yl)oxy)carbonyl)-1-methylpyridin-1-ium] | 88 |
| COc1cc([C@H]2Oc3cc(O)ccc3C[C@H]2O)ccc1C (stereo in doubt) [Compound 1026, 2-(3-methoxy-4-methylphenyl)chromane-3,7-diol] | 101 |
